Laboratory results published in patent US20130053430A1, “MODULATION OF CETP EXPRESSION” (Isis Pharmaceuticals, Inc., priority 2010, published 2013).
Strand notation (5' to 3'): a small letter for the sugar, then the base; units joined by * are phosphorothioate-linked, units joined directly phosphodiester-linked; [ ] holds rarer units or linkages, { } end groups; capitals alone tell only the bases. e = 2'-O-(2-methoxyethyl) (MOE); [5mC] = 5-methylcytosine; d = 2'-deoxy (DNA)

What was measured:
human CETP mRNA [1] = test: Antisense inhibition of human CETP mRNA in primary hepatocytes from huCETP transgenic mice (Example 4); assay type: cell-based, mouse; details: cytofectin, ~24 hours
Procedure: Transgenic mice expressing human CETP, controlled by its natural flanking region, increase expression of this gene in response to hypercholesterolemia (Jiang, X. C. et al., J. Clin. Invest. 1992. 90: 1290-1295). These mice were utilized for the following studies. Antisense oligonucleotides targeted to a CETP nucleic acid and described in Example 1 were tested for their effect on CETP mRNA transcript in vitro. Cultured primary hepatocytes from huCETP transgenic mice, at a density of 17,500 cells per well in a 96-well plate, were transfected using cytofectin reagent with 100 nM or 200 nM antisense oligonucleotide. After approximately 24 hours, RNA was isolated from the cells and CETP mRNA levels were measured by quantitative real-time PCR. CETP mRNA transcript levels were adjusted according to total RNA content, as measured by the house-keeping gene, GAPDH mRNA levels. Results are presented in Table 6 as percent inhibition of CETP, relative to untreated control cells.

human CETP mRNA [2] = test: Antisense inhibition of human CETP mRNA in SW872 liposarcoma cells (Example 1); assay type: cell-based; details: 150 nM antisense oligonucleotide, lipofectin, ~24 hours, relative to untreated control cells
Procedure: Antisense oligonucleotides targeted to a CETP nucleic acid were tested for their effect on CETP mRNA transcript in vitro. Cultured SW872 liposarcoma cells at a density of 50,000 cells per well in a 24-well plate were transfected using lipofectin reagent with 150 nM antisense oligonucleotide. After approximately 24 hours, RNA was isolated from the cells and CETP mRNA levels were measured by quantitative real-time PCR. A human primer probe set (forward sequence […], designated herein as SEQ ID NO: 38; reverse sequence GGCTCACGCCTTTGCTGTT, designated herein as SEQ ID NO: 39; probe sequence […], designated herein as SEQ ID NO: 40) was used to quantitate CETP mRNA. CETP mRNA transcript levels were adjusted according to total RNA content, as measured by the house-keeping gene, GAPDH mRNA levels. GAPDH was measured using a primer probe set with the sequence as set forth in SEQ ID NOs: 10, 11, 13. Results are presented as percent inhibition of CETP, relative to untreated control cells.
The antisense oligonucleotides in Table 3 are 5-10-5 gapmers, where the gap segment comprises ten 2′-deoxynucleosides and each wing segment comprises five 2′-MOE nucleosides. Each nucleotide in the 5′ wing segment and each nucleotide in the 3′ wing segment has a 2′-MOE modification. The internucleoside linkages throughout each gapmer are phosphorothioate (P═S) linkages. All cytosine residues throughout each gapmer are 5-methylcytosines. ‘Target start site’ indicates the 5′-most nucleotide to which the antisense oligonucleotide is targeted. ‘Target stop site’ indicates the 3′-most nucleotide to which the antisense oligonucleotide is targeted. All the antisense oligonucleotides listed in Table 3 target human CETP mRNA, designated herein as SEQ ID NO: 1 (GENBANK Accession No. M30185.1).

Substance	Percent inhibition of human CETP mRNA (human CETP mRNA [1]; 100 nM)	Percent inhibition of human CETP mRNA (human CETP mRNA [1]; 200 nM)	% inhibition (human CETP mRNA [2])
ISIS 349482: 5-10-5 MOE gapmer TGAAATGACCCTTGTGATGG (eT*eG*eA*eA*eA*dT*dG*dA*d[5mC]*d[5mC]*d[5mC]*dT*dT*dG*dT*eG*eA*eT*eG*eG)	11%	65%	51%
ISIS 349484: 5-10-5 MOE gapmer ACCAGAAGTACAGCATGCGG (eA*e[5mC]*e[5mC]*eA*eG*dA*dA*dG*dT*dA*d[5mC]*dA*dG*d[5mC]*dA*eT*eG*e[5mC]*eG*eG)	34%	52%	38%
ISIS 349486: 5-10-5 MOE gapmer GAAAGCTACCTTGGCCAGCG (eG*eA*eA*eA*eG*d[5mC]*dT*dA*d[5mC]*d[5mC]*dT*dT*dG*dG*d[5mC]*e[5mC]*eA*eG*e[5mC]*eG)	72%	53%	55%
ISIS 349487: 5-10-5 MOE gapmer CCCATCAGGCTGAGCATGAG (e[5mC]*e[5mC]*e[5mC]*eA*eT*d[5mC]*dA*dG*dG*d[5mC]*dT*dG*dA*dG*d[5mC]*eA*eT*eG*eA*eG)	84%	68%	73%
ISIS 349488: 5-10-5 MOE gapmer GCACTGCCTTGAACTCGTCT (eG*e[5mC]*eA*e[5mC]*eT*dG*d[5mC]*d[5mC]*dT*dT*dG*dA*dA*d[5mC]*dT*e[5mC]*eG*eT*e[5mC]*eT)	77%	87%	47%
ISIS 349489: 5-10-5 MOE gapmer GTTGAAGCCCCAGGTCTCCA (eG*eT*eT*eG*eA*dA*dG*d[5mC]*d[5mC]*d[5mC]*d[5mC]*dA*dG*dG*dT*e[5mC]*eT*e[5mC]*e[5mC]*eA)	47%	67%	48%
ISIS 349491: 5-10-5 MOE gapmer AGCCGCCGACAACCTCTTGG (eA*eG*e[5mC]*e[5mC]*eG*d[5mC]*d[5mC]*dG*dA*d[5mC]*dA*dA*d[5mC]*d[5mC]*dT*e[5mC]*eT*eT*eG*eG)	60%	74%	45%
ISIS 349492: 5-10-5 MOE gapmer GGCATCTTGAGGCAGTGGAC (antisense eG*eG*e[5mC]*eA*eT*d[5mC]*dT*dT*dG*dA*dG*dG*d[5mC]*dA*dG*eT*eG*eG*eA*e[5mC])	59%	58%	39%
ISIS 349493: 5-10-5 MOE gapmer TGTTTTGGCAGGAGATCTTG (eT*eG*eT*eT*eT*dT*dG*dG*d[5mC]*dA*dG*dG*dA*dG*dA*eT*e[5mC]*eT*eT*eG)	51%	62%	67%
ISIS 349494: 5-10-5 MOE gapmer AGAATTGACCACGACTCCCT (eA*eG*eA*eA*eT*dT*dG*dA*d[5mC]*d[5mC]*dA*d[5mC]*dG*dA*d[5mC]*eT*e[5mC]*e[5mC]*e[5mC]*eT)	85%	57%	41%
ISIS 349495: 5-10-5 MOE gapmer AGGAATTTCACCATCACTGA (eA*eG*eG*eA*eA*dT*dT*dT*d[5mC]*dA*d[5mC]*d[5mC]*dA*dT*d[5mC]*eA*e[5mC]*eT*eG*eA)	61%	74%	58%
ISIS 349496: 5-10-5 MOE gapmer ACAGAATGTTGCTGGTCTGG (eA*e[5mC]*eA*eG*eA*dA*dT*dG*dT*dT*dG*d[5mC]*dT*dG*dG*eT*e[5mC]*eT*eG*eG)	57%	87%	69%
ISIS 349497: 5-10-5 MOE gapmer CCTCTTCAAATGTGTAAGCT (e[5mC]*e[5mC]*eT*e[5mC]*eT*dT*d[5mC]*dA*dA*dA*dT*dG*dT*dG*dT*eA*eA*eG*e[5mC]*eT)	71%	79%	78%
ISIS 349498: 5-10-5 MOE gapmer CTGGACGGTAGTCACGATAT (e[5mC]*eT*eG*eG*eA*d[5mC]*dG*dG*dT*dA*dG*dT*d[5mC]*dA*d[5mC]*eG*eA*eT*eA*eT)	76%	84%	80%
ISIS 349499: 5-10-5 MOE gapmer CCAAGAGGCTTAAGAAGAGC (e[5mC]*e[5mC]*eA*eA*eG*dA*dG*dG*d[5mC]*dT*dT*dA*dA*dG*dA*eA*eG*eA*eG*e[5mC])	80%	80%	55%
ISIS 349500: 5-10-5 MOE gapmer ACAGTCTTTGGTGTAATCTG (eA*e[5mC]*eA*eG*eT*d[5mC]*dT*dT*dT*dG*dG*dT*dG*dT*dA*eA*eT*e[5mC]*eT*eG)	41%	77%	72%
ISIS 349501: 5-10-5 MOE gapmer GCTGCTCTCAGTCAAGTTGG (eG*e[5mC]*eT*eG*e[5mC]*dT*d[5mC]*dT*d[5mC]*dA*dG*dT*d[5mC]*dA*dA*eG*eT*eT*eG*eG)	54%	45%	67%
ISIS 349502: 5-10-5 MOE gapmer GAAGCTCTGGATGGACTCGG (eG*eA*eA*eG*e[5mC]*dT*d[5mC]*dT*dG*dG*dA*dT*dG*dG*dA*e[5mC]*eT*e[5mC]*eG*eG)	49%	61%	43%
ISIS 349503: 5-10-5 MOE gapmer GCGGTGATCATTGACTGCAG (eG*e[5mC]*eG*eG*eT*dG*dA*dT*d[5mC]*dA*dT*dT*dG*dA*d[5mC]*eT*eG*e[5mC]*eA*eG)	83%	89%	81%
ISIS 349504: 5-10-5 MOE gapmer TGACCTCAGGGATGCCCACA (eT*eG*eA*e[5mC]*e[5mC]*dT*d[5mC]*dA*dG*dG*dG*dA*dT*dG*d[5mC]*e[5mC]*e[5mC]*eA*e[5mC]*eA)	78%	92%	45%
ISIS 349505: 5-10-5 MOE gapmer CACTACCTCGAGCCGAGACA (e[5mC]*eA*e[5mC]*eT*eA*d[5mC]*d[5mC]*dT*d[5mC]*dG*dA*dG*d[5mC]*d[5mC]*dG*eA*eG*eA*e[5mC]*eA)	98%	99%	55%
ISIS 349507: 5-10-5 MOE gapmer TGATGATGTCGAAGAGGCTC (eT*eG*eA*eT*eG*dA*dT*dG*dT*d[5mC]*dG*dA*dA*dG*dA*eG*eG*e[5mC]*eT*e[5mC])	71%	73%	19%
ISIS 349508: 5-10-5 MOE gapmer TCTCGAGTGATAATCTCAGG (eT*e[5mC]*eT*e[5mC]*eG*dA*dG*dT*dG*dA*dT*dA*dA*dT*d[5mC]*eT*e[5mC]*eA*eG*eG)	76%	86%	24%
ISIS 349509: 5-10-5 MOE gapmer CATCTGCAGCAGCAGGAAGC (e[5mC]*eA*eT*e[5mC]*eT*dG*d[5mC]*dA*dG*d[5mC]*dA*dG*d[5mC]*dA*dG*eG*eA*eA*eG*e[5mC])	22%	83%	70%
ISIS 349510: 5-10-5 MOE gapmer TCTAGCTCAAGCTCTGGAGG (eT*e[5mC]*eT*eA*eG*d[5mC]*dT*d[5mC]*dA*dA*dG*d[5mC]*dT*d[5mC]*dT*eG*eG*eA*eG*eG)	65%	88%	64%
ISIS 349514: 5-10-5 MOE gapmer ACGCTGGAGGAGACACCAGG (eA*e[5mC]*eG*e[5mC]*eT*dG*dG*dA*dG*dG*dA*dG*dA*d[5mC]*dA*e[5mC]*e[5mC]*eA*eG*eG)	84%	92%	71%
